Experimental data published in US6900206B2, “Indole, azaindole and related heterocyclic sulfonylureido piperazine derivatives” (priority 2002, dated 2005).

Test system: HIV-1 single-round infectious reporter virus
Experiment: microbe, parasite or virus in culture
Type: cell-based
Settings: Human immunodeficiency virus 1, HeLa, 72 h, read-out: EC50 Group from Table 1
Protocol: • Virus production—Human embryonic Kidney cell line, 293T, was propagated in Dulbecco's Modified Eagle Medium (Invitrogen, Carlsbad, Calif.) containing 10% fetal Bovine serum (FBS, Sigma, St. Louis, Mo.). • Virus infection—Human epithelial cell line, HeLa, expressing the HIV-1 receptor CD4 was propagated in Dulbecco's Modified Eagle Medium (Invitrogen, Carlsbad, Calif.) containing 10% fetal Bovine serum (FBS, Sigma, St. Louis, Mo.) and supplemented with 0.2 mg/mL Geneticin (Invitrogen, Carlsbad, Calif.). Virus—Single-round infectious reporter virus was produced by co-transfecting human embryonic Kidney 293 cells with an HIV-1 envelope DNA expression vector and a proviral cDNA containing an envelope deletion mutation and the luciferase reporter gene inserted in place of HIV-1 nef sequences (Chen et al, Ref. 41). Transfections were performed using lipofectAMINE PLUS reagent as described by the manufacturer (Invitrogen, Carlsbad, Calif.). Experiment • 1. HeLa CD4 cells were plated in 96 well plates at a cell density of 1×10^4 cells per well in 100 μl Dulbecco's Modified Eagle Medium containing 10% fetal Bovine serum and incubated overnight. • 2. Compound was added in a 2 μl dimethylsulfoxide solution, so that the final assay concentration would be ≦10 μM. • 3. 100 μl of single-round infectious reporter virus in Dulbecco's Modified Eagle Medium was then added to the plated cells and compound at an approximate multiplicity of infection (MOI) of 0.01, resulting in a final volume of 200 μl per well. • 4. Virally-infected cells were incubated at 37 degrees Celsius, in a CO2 incubator, and harvested 72 h after infection. • 5. Viral infection was monitored by measuring luciferase expression from viral DNA in the infected cells using a luciferase reporter gene assay kit, as described by the manufacturer (Roche Molecular Biochemicals, Indianapolis, Ind.). Infected cell supernatants were removed and 50 μl of lysis buffer was added per well. After 15 minutes, 50 μl of freshly-reconstituted luciferase assay reagent was added per well. Luciferase activity was then quantified by measuring luminescence using a Wallac microbeta scintillation counter. • 6. […] An EC50 provides a method for comparing the antiviral potency of the compounds of this invention. The effective concentration for fifty percent inhibition (EC50) was calculated with the Microsoft Excel Xlfit curve fitting software. For each compound, curves were generated from percent inhibition calculated at 10 different concentrations by using a four paramenter logistic model (model 205). Table 1 is the key for the data in Table 2. Results

Question: `CNC(=O)c1ccc(F)c2c(C(=O)C(=O)N3CCN(S(=O)(=O)N(C)C)CC3)c[nH]c12` [Example 1] was tested. Which EC50 did it give?
Answer: The EC50 was less than 1 µM.

Question: For `CNC(=O)c1ccc(F)c2c(C(=O)C(=O)N3CCN(S(=O)(=O)Nc4ccccc4)CC3)c[nH]c12` [Example 2], which EC50 is on record?
Answer: The EC50 was 1 to 5 µM.

Question: `CNC(=O)c1ccc(F)c2c(C(=O)C(=O)N3CCN(S(=O)(=O)N4CCOCC4)CC3)c[nH]c12` [Example 3] was tested. Which EC50 did it give?
Answer: Its EC50 is greater than 5 µM.

Question: For `CNC(=O)c1ccc(F)c2c(C(=O)C(=O)N3CCN(S(=O)(=O)NC)CC3)c[nH]c12` [Example 4], which EC50 is on record?
Answer: Its EC50 is greater than 5 µM.

Question: `COC(=O)c1ccc(F)c2c(C(=O)C(=O)N3CCN(S(=O)(=O)N(C)C)CC3)c[nH]c12` [Example 5] was tested. Which EC50 did it give?
Answer: The EC50 was greater than 5 µM.

Question: Which EC50 does the source give for `COC(=O)c1ccc(F)c2c(C(=O)C(=O)N3CCN(S(=O)(=O)N4CCC4)CC3)c[nH]c12` [Example 6] here?
Answer: The EC50 was greater than 5 µM.

Question: With `COC(=O)c1ccc(F)c2c(C(=O)C(=O)N3CCN(S(=O)(=O)N4CCCCC4)CC3)c[nH]c12` [Example 7] as the compound, how does the EC50 read?
Answer: The EC50 was 1 to 5 µM.

Question: How did the EC50 turn out when `CCN(CC)S(=O)(=O)N1CCN(C(=O)C(=O)c2c[nH]c3c(C(=O)OC)ccc(F)c23)CC1` [Example 8] was run?
Answer: Its EC50 is 1 to 5 µM.

Question: How did the EC50 turn out when `CNC(=O)c1ccc(F)c2c(C(=O)C(=O)N3CCN(S(=O)(=O)N4CCCCC4)CC3)c[nH]c12` [Example 9] was run?
Answer: Its EC50 is 1 to 5 µM.

Question: How did the EC50 turn out when `CNC(=O)c1ccc(F)c2c(C(=O)C(=O)N3CCN(S(=O)(=O)N4CCC4)CC3)c[nH]c12` [Example 10] was run?
Answer: The EC50 was greater than 5 µM.

Question: Which EC50 does the source give for `CCN(CC)S(=O)(=O)N1CCN(C(=O)C(=O)c2c[nH]c3c(C(=O)NC)ccc(F)c23)CC1` [Example 11] here?
Answer: Its EC50 is 1 to 5 µM.

Question: How did the EC50 turn out when `CN(C)S(=O)(=O)N1CCN(C(=O)C(=O)c2c[nH]c3c(-n4cncn4)ncc(F)c23)CC1` [Example 12] was run?
Answer: Its EC50 is less than 1 µM.
